What was measured:
[1] = tested on: HCV replicon (BB7 sequence) in Huh-7-Clone A cells; assay: HCV replicon assay: ELISA of NS5A protein in replicon-containing cells (Inhibition of Viral RNA Replication); type: cell-based; details: Hepatitis C virus; Huh-7-Clone A, NS5A ELISA, 72-hour incubation; ranges of EC50; read-out: Replicon
In short: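 Huh-7-Clone A cells carrying subgenomic BB7 HCV replicon (G418-selectable) incubated 72 h with compound. NS5A protein quantified by cell ELISA: glutaraldehyde fixation, anti-NS5A monoclonal plus HRP secondary, TMB read at OD 650 nm. EC50 derived from 8-point serial dilution dose curve.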

HCV NS5B = target: T1, HCV NS5B (Hepatitis C virus genotype 1b, UniProt Q9WMX2); assay: Inhibition of viral RNA-dependent RNA polymerase (RdRp), in vitro biochemical assay; design: species or system HCV genotype 1b virus (BB7); details: purified His-tagged NS5B (BB7), carboxyl terminal 21 amino acids removed; read-out: HCV pol-BB7 IC50
T1 construct: fusion protein, of which the carboxyl terminal 21 amino acids were removed to enhance its solubility; His tag (GSHHHHHH); made in house; host or cells: E. coli
In short: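 Purified recombinant NS5B from a genotype 1b consensus (BB7), His-tagged, E. coli-expressed, with the C-terminal 21 residues deleted. Inhibition of RdRp activity in vitro was measured, and IC50 is the concentration giving 50% inhibition.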

CCOc1cc2c(C(=O)NC)c(-c3ccc(F)cc3)oc2cc1N(CC)S(C)(=O)=O [Example 32, 5-Ethoxy-6-(ethyl-methanesulfonyl-amino)-2-(4-fluoro-phenyl)-benzofuran-3-carboxylic acid methylamide]
EC50 [1]: < 1000 nM
IC50 (HCV NS5B): ≤ 500 nM

CNC(=O)c1c(-c2ccc(F)cc2)oc2cc(N3CCOCC3)c(OCc3nccs3)cc12 [Example 33, 2-(4-Fluoro-phenyl)-6-morpholin-4-yl-5-(thiazol-2-ylmethoxy)-benzofuran-3-carboxylic acid methylamide]
EC50 [1]: < 1000 nM
IC50 (HCV NS5B): ≤ 500 nM

CNC(=O)c1c(-c2ccc(F)cc2)oc2cc(N(CC(C)=O)S(C)(=O)=O)c(OC(C)C)cc12 [Example 34, 2-(4-Fluoro-phenyl)-5-isopropoxy-6-[methanesulfonyl-(2-oxo-propyl)-amino]-benzofuran-3-carboxylic acid methylamide]
EC50 [1]: < 1000 nM
IC50 (HCV NS5B): ≤ 500 nM

CNC(=O)c1c(-c2ccc(F)cc2)oc2cc(N3CCOCC3)c(OCc3cscn3)cc12 [Example 35, 2-(4-Fluoro-phenyl)-6-morpholin-4-yI-5-(thiazol-4-ylmethoxy)-benzofuran-3-carboxylic acid methylamide]
EC50 [1]: < 1000 nM
IC50 (HCV NS5B): ≤ 500 nM

CNC(=O)c1c(-c2ccc(F)cc2)oc2cc(N(Cc3cscn3)S(C)(=O)=O)c(OC(C)C)cc12 [Example 36, 2-(4-Fluoro-phenyl)-5-isopropoxy-6-(methanesulfonyl-thiazol-4-ylmethyl-amino)-benzofuran-3-carboxylic acid methylamide]
EC50 [1]: < 1000 nM
IC50 (HCV NS5B): ≤ 500 nM

CNC(=O)c1c(-c2ccc(F)cc2)oc2cc(-c3cc(CO)on3)c(OC(C)C)cc12 [Example 37, 2-(4-Fluoro-phenyl)-6-(5-hydroxymethyl-isoxazol-3-yl)-5-isopropoxy-benzofuran-3-carboxylic acid methylamide]
EC50 [1]: < 1000 nM
IC50 (HCV NS5B): ≤ 500 nM

CCOc1cc2c(C(=O)NC)c(-c3ccc(F)cc3)oc2cc1N(C)S(C)(=O)=O [Example 38, 5-Ethoxy-2-(4-fluoro-phenyl)-6-(methanesulfonyl-methyl-amino)-benzofuran-3-carboxylic acid methylamide]
EC50 [1]: < 1000 nM
IC50 (HCV NS5B): ≤ 500 nM

CNC(=O)c1c(-c2ccc(F)cc2)oc2cc(N(C)S(C)(=O)=O)c(OCc3ccc(C(=O)O)c(O)c3)cc12 [Example 39, 4-[2-(4-Fluoro-phenyl)-6-(methanesulfonyl-methyl-amino)-3-methylcarbamoyl-benzofuran-5-yloxymethyl]-2-hydroxy-benzoic acid]
EC50 [1]: < 10000 nM
IC50 (HCV NS5B): ≤ 500 nM

CNC(=O)c1c(-c2ccc(F)cc2)oc2cc(-c3cc(CO)on3)c(OC)cc12 [Example 40, 2-(4-Fluoro-phenyl)-6-(5-hydroxymethyl-isoxazol-3-yl)-5-methoxy-benzofuran-3-carboxylic acid methylamide]
EC50 [1]: < 1000 nM
IC50 (HCV NS5B): ≤ 500 nM

CNC(=O)c1c(-c2ccc(F)cc2)oc2cc(-c3nocc3CCO)c(OC)cc12 [Example 41, 2-(4-Fluoro-phenyl)-6-[4-(2-hydroxy-ethyl)-isoxazol-3-yl]-5-methoxy-benzofuran-3-carboxylic acid methylamide]
EC50 [1]: < 1000 nM
IC50 (HCV NS5B): ≤ 500 nM

CNC(=O)c1c(-c2ccc(F)cc2)oc2cc(N(CCO)S(C)(=O)=O)c(OC)cc12 [Example 42, 2-(4-Fluoro-phenyl)-6-[(2-hydroxy-ethyl)-methanesulfonyl-amino]-5-methoxy-benzofuran-3-carboxylic acid methylamide]
EC50 [1]: < 1000 nM
IC50 (HCV NS5B): ≤ 500 nM

CNC(=O)c1c(-c2ccc(F)cc2)oc2cc(N(CCO)S(C)(=O)=O)c(C3CC3)cc12 [Example 43, 5-Cyclopropyl-2-(4-fluoro-phenyl)-6-[(2-hydroxy-ethyl)-methanesulfonyl-amino]-benzofuran-3-carboxylic acid methylamide]
EC50 [1]: < 1000 nM
IC50 (HCV NS5B): ≤ 500 nM

CCc1cc2c(C(=O)NC)c(-c3ccc(F)cc3)oc2cc1NS(C)(=O)=O [Example 44, 5-Ethyl-2-(4-fluoro-phenyl)-6-methanesulfonylamino-benzofuran-3-carboxylic acid methylamide]
EC50 [1]: < 10000 nM
IC50 (HCV NS5B): ≤ 500 nM

CCc1cc2c(C(=O)NC)c(-c3ccc(F)cc3)oc2cc1N(C)S(C)(=O)=O [Example 45, 5-Ethyl-2-(4-fluoro-phenyl)-6-(methanesulfonyl-methyl-amino)-benzofuran-3-carboxylic acid methylamide]
EC50 [1]: < 1000 nM
IC50 (HCV NS5B): ≤ 500 nM

CCc1cc2c(C(=O)NC)c(-c3ccc(F)cc3)oc2cc1N(CCO)S(C)(=O)=O [Example 46, 5-Ethyl-2-(4-fluoro-phenyl)-6-[(2-hydroxy-ethyl)-methanesulfonyl-amino]-benzofuran-3-carboxylic acid methylamide]
EC50 [1]: < 1000 nM
IC50 (HCV NS5B): ≤ 500 nM

CNC(=O)c1c(-c2ccc(F)cc2)oc2cc(C3CCCN3C(C)=O)c(OC)cc12 (stereo not drawn) [Example 47, 6-(1-Acetyl-pyrrolidin-2-yl)-2-(4-fluoro-phenyl)-5-methoxy-benzofuran-3-carboxylic acid methylamide]
EC50 [1]: < 1000 nM
IC50 (HCV NS5B): ≤ 500 nM

CNC(=O)c1c(-c2ccc(F)cc2)oc2cc(C3CNC(=O)O3)c(OC)cc12 (stereo not drawn) [Example 48, 2-(4-Fluoro-phenyl)-5-methoxy-6-(2-oxo-oxazolidin-5-yl)-benzofuran-3-carboxylic acid methylamide]
EC50 [1]: < 10000 nM
IC50 (HCV NS5B): ≤ 500 nM

CNC(=O)c1c(-c2ccc(F)cc2)oc2cc(C(C)(C)O)c(OC)cc12 [Example 49, 2-(4-Fluoro-phenyl)-6-(1-hydroxy-1-methyl-ethyl)-5-methoxy-benzofuran-3-carboxylic acid methylamide]
EC50 [1]: < 1000 nM
IC50 (HCV NS5B): ≤ 500 nM

CNC(=O)c1c(-c2ccc(F)cc2)oc2cc(-c3noc(C)n3)c(OC)cc12 [Example 50, 2-(4-Fluoro-phenyl)-5-methoxy-6-(5-methyl-[1,2,4]oxadiazol-3-yl)-benzofuran-3-carboxylic acid methylamide]
EC50 [1]: < 1000 nM
IC50 (HCV NS5B): ≤ 500 nM

CNC(=O)c1c(-c2ccc(F)cc2)oc2cc(-c3c(C)noc3C)c(OCCCO)cc12 [Example 51, 6-(3,5-Dimethyl-isoxazol-4-yl)-2-(4-fluoro-phenyl)-5-(3-hydroxy-propoxy)-benzofuran-3-carboxylic acid methylamide]
EC50 [1]: < 1000 nM
IC50 (HCV NS5B): ≤ 500 nM

CNC(=O)c1c(-c2ccc(F)cc2)oc2cc(N(C)S(C)(=O)=O)c(OCCN3CCOCC3)cc12 [Example 52, 2-(4-Fluoro-phenyl)-6-(methanesulfonyl-methyl-amino)-5-(2-morpholin-4-yl-ethoxy)-benzofuran-3-carboxylic acid methylamide]
EC50 [1]: < 1000 nM
IC50 (HCV NS5B): ≤ 500 nM

CNC(=O)c1c(-c2ccccc2)oc2ccc(OCc3ccccc3-c3ccccc3)cc12 [Example 53, 5-(Biphenyl-2-ylmethoxy)-2-phenyl-benzofuran-3-carboxylic acid methylamide]
EC50 [1]: < 30000 nM
IC50 (HCV NS5B): 5000 to 30000 nM

CNC(=O)c1c(-c2ccc(OC)cc2)oc2ccc(OC)cc12 [Example 54, 5-Methoxy-2-(4-methoxy-phenyl)-benzofuran-3-carboxylic acid methylamide]
EC50 [1]: < 10000 nM
IC50 (HCV NS5B): 500 to 5000 nM

CNC(=O)c1c(-c2cccc(C(F)(F)F)c2)oc2ccc(OC)cc12 [Example 55, 5-Methoxy-2-(3-trifluoromethyl-phenyl)-benzofuran-3-carboxylic acid methylamide]
EC50 [1]: < 30000 nM
IC50 (HCV NS5B): 500 to 5000 nM

CNC(=O)c1c(-c2ccc(C(F)(F)F)cc2)oc2ccc(OC)cc12 [Example 56, 5-Methoxy-2-(4-trifluoromethyl-phenyl)-benzofuran-3-carboxylic acid methylamide]
EC50 [1]: < 10000 nM
IC50 (HCV NS5B): 500 to 5000 nM

CCOc1ccc2oc(-c3ccccc3)c(C(=O)NC)c2c1 [Example 57, 5-Ethoxy-2-phenyl-benzofuran-3-carboxylic acid methylamide]
EC50 [1]: > 30000 nM
IC50 (HCV NS5B): 500 to 5000 nM

CNC(=O)c1c(-c2ccccc2F)oc2ccc(OC)cc12 [Example 58, 2-(2-Fluoro-phenyl)-5-methoxy-benzofuran-3-carboxylic acid methylamide]
EC50 [1]: < 10000 nM
IC50 (HCV NS5B): 500 to 5000 nM

CNC(=O)c1c(-c2ccccc2)oc2ccc(OC(C)C)cc12 [Example 59, 5-Isopropoxy-2-phenyl-benzofuran-3-carboxylic acid methylamide]
EC50 [1]: < 30000 nM
IC50 (HCV NS5B): 500 to 5000 nM

CCCCOc1ccc2oc(-c3ccccc3)c(C(=O)NC)c2c1 [Example 60, 5-Butoxy-2-phenyl-benzofuran-3-carboxylic acid methylamide]
EC50 [1]: < 30000 nM
IC50 (HCV NS5B): 500 to 5000 nM

CCCOc1ccc2oc(-c3ccccc3)c(C(=O)NC)c2c1 [Example 61, 2-Phenyl-5-propoxy-benzofuran-3-carboxylic acid methylamide]
EC50 [1]: < 30000 nM
IC50 (HCV NS5B): 500 to 5000 nM

CNC(=O)c1c(-c2cc(F)c(F)cc2F)oc2ccc(OC)cc12 [Example 62, 5-Methoxy-2-(2,4,5-trifluoro-phenyl)-benzofuran-3-carboxylic acid methylamide]
EC50 [1]: < 30000 nM
IC50 (HCV NS5B): 5000 to 30000 nM

CNC(=O)c1c(-c2ccccc2)oc2c(C)cc(OC)cc12 [Example 63, 5-Methoxy-7-methyl-2-phenyl-benzofuran-3-carboxylic acid methylamide]
EC50 [1]: < 10000 nM
IC50 (HCV NS5B): 500 to 5000 nM

CNC(=O)c1c(-c2ccc(F)cc2)oc2ccc(OC(C)C)cc12 [Example 65, 2-(4-Fluoro-phenyl)-5-isopropoxy-benzofuran-3-carboxylic acid methylamide]
EC50 [1]: < 30000 nM
IC50 (HCV NS5B): 500 to 5000 nM

— patent US7265152B2 (ViroPharma Incorporated, priority 2002, dated 2007)
